Assays:
[1] = test system: Proteus vulgaris IAM 1025; assay: Antibacterial activity, agar plate dilution method: P. vulgaris IAM 1025; assay type: cell-based; conditions: Mueller-Hinton agar, 10^6 cells/ml, 37° C., 18 to 24 hours
Protocol: (§1) Antibacterial activity of the present compound was examined by agar plate dilution method while following the standard method of Japan Society of Chemotherapy and using the following strain: 4. Proteus vulgaris IAM 1025 Namely, after inoculating each bacteria on Mueller-Hinton culture medium, the inoculum was incubated for 18 to 48 hours at 37° C. and after adjusting the number of cells of each bacteria so as to contain 10^6 in one ml, the thus prepared specimen was used as the test bacterial liquid. Each of the present substances (the substance in Example 1 and the substance in Example 2) was dispersed in aqueous physiological saline solution at a predetermined concentration and the thus prepared dispersion was added to 9 times by volume of the culture medium for examining sensitivity (Mueller-Hinton culture medium) to prepare agar plates. On each agar plate, each of the test bacterial liquid was smeared at a width of about 2 cm, and the thus smeared agar plate was incubated for 18 to 24 hours at 37° C.

[2] = test system: Escherichia coli IFO 12734; assay: Antibacterial activity, agar plate dilution method: E. coli IFO 12734; assay type: cell-based; conditions: Mueller-Hinton agar, 10^6 cells/ml, 37° C., 18 to 24 hours
Protocol: as §1, with “1. Escherichia coli IFO 12734” for “4. Proteus vulgaris IAM 1025”

[3] = test system: Staphylococcus aureus IAM 1011; assay: in vitro; assay type: in vitro ADME
Protocol: As a model experiment for verifying the stability of the present compound in Example 1 in the living body, the following procedures were adopted. The same test solution of the present compound as in Example 6 was prepared by mixing 0.1 ml of the dispersion of the present compound and 0.9 ml of S-9 mix, and shaking the mixture for 20 min at 37° C. As a control, a mixture of 0.1 ml of the dispersion of the present compound and 0.9 ml of the 0.2M phosphoric acid buffer was shaken for 20 min at 37° C. As the test bacteria, Staphylococcus aureus IAM 1011 was inoculated in Mueller-Hinton culture medium, and after incubating the inoculum for 18 hours at 37° C., the number of bacteria in the medium was adjusted to 10^8 /ml and the thus adjusted, cultured medium was mixed with 50 times by volume of Mueller-Hinton culture medium. After preparing an agar plate from the mixture, a penicillin cup of 8 mm in diameter was placed on the agar plate, and 0.1 ml of the test solution prepared above was put into the cup. After leaving the thus prepared agar plate for 2 hours at 4° C., the agar plate was subjected to culture for 18 hours at 37° C. to measure the diameter of a proliferation-inhibiting circle appearing on the agar plate. From a calibration curve preliminarily prepared between the concentration of the present compound and the diameter of the proliferation-inhibiting circle, the concentration of the present compound in the test solution and the control was obtained. By using the thus obtained concentration, the rate of retaining the antibacterial activity (Rate (%)) was calculated from the following formula and is shown in Table 5. [formula] As a comparative experiment, the same precedures were carried out except for using Cefotax (a commercialized cephalosporin derivative sold by CHUGAI Pharmaceuticla Co., Ltd., which is represented by the following formula), [drawing 21] instead of the present compound produced in Example 1.

[4] = test system: Staphylcoccus aureus IAM 1011; assay: Activation by rat liver homogenate (S-9 mix), penicillin cup proliferation-inhibiting circle; assay type: cell-based, Staphylococcus aureus; conditions: 20 min at 37° C., inhibiting circle diameter as % of that of the starting compound; for Degree of activation, Before adding S-9 mix: phosphoric acid buffer control; for Degree of activation, After adding S-9 mix: rat liver S-9 mix
Protocol: As an enzyme for activating metabolism of the present compound, rat liver homogenate (S-9, manufactured by Oriental Yeast Co., Ltd.) was used in preparing the following mixture (hereinafter referred to as S-9 mix).
Composition of S-9 mix (amount in one ml of S-9 mix)
A test solution of present compound was prepared by mixing 0.1 ml of a dispersion of the present compound and 0.9 ml of the thus prepared S-9 mix and shaking the thus prepared mixture for 20 min at 37° C. As a control, a mixture was prepared by mixing 0.1 ml of the dispersion of the present compound and 0.9 ml of the 0.2M phosphoric acid buffer and shaking the mixture for 20 min at 37° C.
As the test bacteria, Staphylcoccus aureus IAM 1011 was inoculated in Mueller-Hinton culture medium and after incubating the inoculum for 18 hours at 37° C., the number of the bacteria was adjusted to 10^8 /ml and the bacterial preparation was mixed with 50 times by volume of Mueller-Hinton culture medium, and an agar plate was prepared from the mixture.
After placing a penicillin cup of 8 mm in diameter on the thus prepared agar plate, 0.1 ml of the test solution of present compound prepared above was put into the cup, and after leaving the agar plate for 2 hours at 4° C., the agar plate was subjected to culture for 18 hours at 37° C. and the diameter of a proliferation-inhibiting circle appearing on the agar plate was measured.
The same procedures were carried out except for using 7β-[2-(2-amino-4-thiazolyl)-(Z)-2-methoxyiminoacetamido]-3-[(2-methyl-1,3,4-thiadiazol-5-yl)thiomethyl]-3-cephem-4-carboxylic acid used as a starting compound for producing the present compound in Example 1 instead of the present compound.
The percentage of the diameter of a proliferation-inhibiting circle due to the present compound to that due to the starting compound mentioned above was obtained, and from the following standards, the degree of activation was obtained.

Escherichia coli W 3636 = assay: Antibacterial activity, agar plate dilution method: E. coli W 3636; assay type: cell-based; conditions: Mueller-Hinton agar, 10^6 cells/ml, 37° C., 18 to 24 hours
Protocol: Antibacterial activity of the present compound was examined by agar plate dilution method while following the standard method of Japan Society of Chemotherapy and using the following strain:
3. Escherichia coli W 3636
Namely, after inoculating each bacteria on Mueller-Hinton culture medium, the inoculum was incubated for 18 to 48 hours at 37° C. and after adjusting the number of cells of each bacteria so as to contain 10^6 in one ml, the thus prepared specimen was used as the test bacterial liquid.
Each of the present substances (the substance in Example 1 and the substance in Example 2) was dispersed in aqueous physiological saline solution at a predetermined concentration and the thus prepared dispersion was added to 9 times by volume of the culture medium for examining sensitivity (Mueller-Hinton culture medium) to prepare agar plates.
On each agar plate, each of the test bacterial liquid was smeared at a width of about 2 cm, and the thus smeared agar plate was incubated for 18 to 24 hours at 37° C.

Structure (SMILES) | minimal inhibitory concentration (MIC), Pro. vulgaris IAM 1025 [1] | minimal inhibitory concentration (MIC), E. coli IFO 12734 [2] | Rate of retaining the antibacterial activity (in words) [3] | Degree of activation, Before adding S-9 mix [4] | Degree of activation, After adding S-9 mix [4] | minimal inhibitory concentration (MIC), E. coli W 3636 (Escherichia coli W 3636)
CO/N=C(\C(=O)N[C@@H]1C(=O)N2C(C(=O)O)=C(CSc3nnc(C)s3)CS[C@H]12)c1csc(NC(=O)C(Cl)Cl)n1 [Example 1, 7β-[2-(2-dichloroacetamido-4-thiazolyl)-(Z)-2-methoxyiminoacetamido]-3-[(2-methyl-1,3,4-thiadiazol-5-yl)thiomethyl]-3-cephem-4-carboxylic acid] | 0.05 | 0.1 | superior to a conventional commerciallized cephalosporin derivative | ++++ (100 to 150%) | ++++ (100 to 150%) | 0.4
CO/N=C(\C(=O)N[C@@H]1C(=O)N2C(C(=O)OCOC(=O)C(C)(C)C)=C(CSc3nnc(C)s3)CS[C@H]12)c1csc(NC(=O)C(Cl)Cl)n1 [Example 2] | 50 | 50 | the same result as that obtained in using the present compound produced in Example 1 | ± (0 to 1%) | ++++ (100 to 150%) | ≥ 100

— patent US4734409A, “Cephalosporin derivative, process for producing the same and pharmaceutical composition containing the same” (Kureha Kagaku Kogyo Kabushiki Kaisha, priority 1984, dated 1988)
